For 4 compounds, MIC results are on record in patent US11767341B2, “Lincosamide antibiotics and uses thereof” (President and Fellows of Harvard College, priority 2017, dated 2023).

Converted amounts (≈) assume the structure as drawn.

Holding throughout (assay): MIC determination
Assay type in all cases: cell-based

For one test, the system named is S. aureus ATCC 29213. As to conditions: Staphylococcus aureus, ATCC29213, S. aureus ATCC 29213; read-out: MIC.
The subject of the next test is S. pyogenes ATCC 19615. As to conditions: Streptococcus pyogenes, ATCC19615; S. pyogenes ATCC 19615; read-out: MIC.
Test [1] has as its system S. pneumoniae TP 1579 (ermB + tet(M, O)). As to conditions: Streptococcus pneumoniae.
In test [2] the test system is K. pneumoniae IHMA 658692; KPC-2. The note with it: Klebsiella pneumoniae; K. pneumoniae IHMA 658692; KPC-2; read-out: MIC.
For another test, the system named is K. pneumoniae ATCC 10031. The note with it: Klebsiella pneumoniae, ATCC10031; K. pneumoniae ATCC 10031; read-out: MIC.
The subject of test [3] is S. aureus UNT-120, MP-619, NRS22 (USA 600, GISA). As to conditions: Staphylococcus aureus; S. aureus UNT-120, MP-619, NRS22 (USA 600, GISA); read-out: MIC.
The next test has as its system S. pneumoniae ATCC 49619. As to conditions: Streptococcus pneumoniae, ATCC49619; S. pneumoniae ATCC 49619; read-out: MIC.
The subject of test [4] is S. pneumoniae TP 1537 (ermB + mefA). As to conditions: Streptococcus pneumoniae; S. pneumoniae TP 1537 (ermB + mefA); read-out: MIC.
A further test relates to E. coli ATCC 25922. The note with it: Escherichia coli, ATCC25922, E. coli ATCC 25922; read-out: MIC.
The test system of test [5] is S. aureus UNT96, NRS710, MP-618 (USA 100, Erythro >8). As to conditions: Staphylococcus aureus; S. aureus UNT96, NRS710, MP-618 (USA 100, Erythro >8); read-out: MIC.
The test system of a further test is P. aeruginosa ATCC 27853. The note with it: Pseudomonas aeruginosa, ATCC27853; P. aeruginosa ATCC 27853; read-out: MIC.
Another test deals with E. faecalis ATCC 29212. The note with it: Enterococcus faecalis, ATCC29212, read-out: MIC.
The next test deals with E. coli GUEST131 (NDM-1). As to conditions: Escherichia coli.
Test [6] concerns S. aureus BAA-1556 (USA 300). The note with it: Staphylococcus aureus; S. aureus BAA-1556 (USA 300); read-out: MIC.
Test [7] deals with S. pyogenes UNT-014, MP-625 MacRes. As to conditions: Streptococcus pyogenes; S. pyogenes UNT-014, MP-625 MacRes; read-out: MIC.
For a further test, the system named is E. faecalis UNT-047 VRE. As to conditions: Enterococcus faecalis; E. faecalis UNT-047 VRE; read-out: MIC.
The next test has as its system H. influenzae ATCC 49247. The note with it: Haemophilus influenzae, ATCC49247; H. influenzae ATCC 49247; read-out: MIC.
Test [8] deals with S. pneumoniae UNT-039, MP-627, TP1517 (mefA). The note with it: Streptococcus pneumoniae.
In test [9] the test system is S. aureus UNT-146, MP-620, TP 506 (ermA). The note with it: Staphylococcus aureus; S. aureus UNT-146, MP-620, TP 506 (ermA); read-out: MIC.
Test [10] has as its system S. pneumoniae UNT-038, MP-626, TP 160 (mefA). The note with it: Streptococcus pneumoniae.

On to `CSC1O[C@H]([C@H](NC(=O)[C@@H]2[C@@H]3OCCCC[C@H]3CN2C)[C@H](C)Cl)C(O)C(O)[C@H]1O` (some centres unmarked) [FSA-24040], for which the MIC with S. aureus ATCC 29213 was no more than 0.0313 mg/L; with S. pyogenes ATCC 19615, no more than 0.0313 mg/L; in test [1], no more than 0.0313 mg/L; in test [2], greater than 32 mg/L; with K. pneumoniae ATCC 10031, 8 mg/L (≈ 17.7 µM); in test [3], greater than 32 mg/L. For the same compound, the MIC in the test on S. pneumoniae ATCC 49619 is no more than 0.0313 mg/L; in test [4], greater than 32 mg/L; with E. coli ATCC 25922, greater than 32 mg/L; in [5], greater than 32 mg/L; with P. aeruginosa ATCC 27853, greater than 32 mg/L; in the test on E. faecalis ATCC 29212, 32 mg/L (≈ 70.6 µM). In addition, the MIC was greater than 32 mg/L against E. coli GUEST131 (NDM-1); greater than 32 mg/L in test [6]; no more than 0.0313 mg/L in test [7]; greater than 32 mg/L with E. faecalis UNT-047 VRE; 8 mg/L (≈ 17.7 µM) in the test with H. influenzae ATCC 49247; no more than 0.0313 mg/L in [8]. Further, the figures for the MIC in [9] and in [10] were greater than 32 mg/L and no more than 0.0313 mg/L, respectively.
`CSC1O[C@H]([C@H](NC(=O)[C@H]2NC[C@@H]3CCCCO[C@H]32)[C@H](C)Cl)C(O)[C@@H](O)[C@H]1O` (some centres unmarked) [FSA-22091]: the MIC was 0.125 mg/L (≈ 0.285 µM) in the test with S. aureus ATCC 29213; less than 0.0313 mg/L in the test on S. pyogenes ATCC 19615; less than 0.0313 mg/L in [1]; greater than 32 mg/L in test [2]; 8 mg/L (≈ 18.2 µM) in the test with K. pneumoniae ATCC 10031; greater than 32 mg/L in [3]. Also, the MIC in the test with S. pneumoniae ATCC 49619 is less than 0.0313 mg/L; in test [4], 32 mg/L; in the test on E. coli ATCC 25922, 32 mg/L (≈ 72.9 µM); in test [5], greater than 32 mg/L; in the test with P. aeruginosa ATCC 27853, greater than 32 mg/L; in the test on E. faecalis ATCC 29212 it was greater than 32 mg/L. Also, the MIC is greater than 32 mg/L with E. coli GUEST131 (NDM-1); greater than 32 mg/L in [6]; less than 0.0313 mg/L in test [7]; greater than 32 mg/L with E. faecalis UNT-047 VRE; 8 mg/L (≈ 18.2 µM) in the test on H. influenzae ATCC 49247; less than 0.0313 mg/L in [8]. The MIC is greater than 32 mg/L in test [9] and less than 0.0313 mg/L in [10].
Regarding `CSC1O[C@H]([C@H](NC(=O)[C@H]2NC[C@@H]3C=CCO[C@@H]23)[C@H](C)Cl)C(O)[C@@H](O)[C@H]1O` (some centres unmarked) [FSA-24039], the MIC in the test with S. aureus ATCC 29213 is 1 mg/L (≈ 2.36 µM); with S. pyogenes ATCC 19615 it was 0.125 mg/L (≈ 0.296 µM); in [1] it was 0.0625 mg/L (≈ 0.148 µM); in test [2], greater than 32 mg/L; in the test on K. pneumoniae ATCC 10031 it was greater than 32 mg/L; in [3], greater than 32 mg/L. The MIC in the test on S. pneumoniae ATCC 49619 is 0.0625 mg/L (≈ 0.148 µM); in test [4] it was greater than 32 mg/L; in the test on E. coli ATCC 25922, greater than 32 mg/L; in test [5], greater than 32 mg/L; with P. aeruginosa ATCC 27853, greater than 32 mg/L; in the test on E. faecalis ATCC 29212 it was 32 mg/L (≈ 75.7 µM). Further, the MIC against E. coli GUEST131 (NDM-1) is greater than 32 mg/L; in test [6] it was greater than 32 mg/L; in test [7] it was 0.125 mg/L (≈ 0.296 µM); in the test on E. faecalis UNT-047 VRE it was greater than 32 mg/L; with H. influenzae ATCC 49247 it was 32 mg/L (≈ 75.7 µM); in test [8], no more than 0.0313 mg/L. In addition, the MIC in test [9] was greater than 32 mg/L; in [10] it was 0.125 mg/L (≈ 0.296 µM).
Take `CSC1O[C@H]([C@H](NC(=O)[C@H]2NC[C@@H]3CCCO[C@H]32)[C@H](C)Cl)C(O)[C@@H](O)[C@H]1O` (some centres unmarked) [FSA-24041]: the MIC is 0.5 mg/L (≈ 1.18 µM) in the test with S. aureus ATCC 29213; no more than 0.0313 mg/L in the test on S. pyogenes ATCC 19615; no more than 0.0313 mg/L in test [1]; greater than 32 mg/L in test [2]; greater than 32 mg/L in the test with K. pneumoniae ATCC 10031; greater than 32 mg/L in [3]. For the same compound, the MIC with S. pneumoniae ATCC 49619 is 0.0625 mg/L (≈ 0.147 µM); in test [4], greater than 32 mg/L; with E. coli ATCC 25922 it was greater than 32 mg/L; in test [5], greater than 32 mg/L; with P. aeruginosa ATCC 27853 it was greater than 32 mg/L; in the test with E. faecalis ATCC 29212 it was 32 mg/L (≈ 75.3 µM). The MIC with E. coli GUEST131 (NDM-1) was greater than 32 mg/L; in [6] it was greater than 32 mg/L; in test [7] it was 0.0625 mg/L (≈ 0.147 µM); in the test with E. faecalis UNT-047 VRE, greater than 32 mg/L; with H. influenzae ATCC 49247, 32 mg/L (≈ 75.3 µM); in [8], no more than 0.0313 mg/L. For the same compound, the MIC in test [9] was greater than 32 mg/L; in test [10] it was 0.0625 mg/L (≈ 0.147 µM).
